Source: PubChem BioAssay AID1745844 (Carcinogenic Potency Database (CPDB), 2022)
The source made the active and inactive calls. No rule for the calls is given here.

System: rodent lifetime carcinogenesis bioassay, tumor incidence TD50
Experiment: chronic cancer bioassays in animals – CPDB, compiled studies (AID 1745844)
Settings: for carcinogen call: lesion: one or several types, types not named

[Na+]
TD50 (mouse, strain B6C3F1, females, in drinking water, site: liver, lesion: hyperplastic nodule, dosed 104 weeks, study length 104 weeks): 1.33e+06 mg/kg/day | TD50 (mouse, strain B6C3F1, females, in drinking water, site: lung, lesion: papillary tumor, dosed 104 weeks, study length 104 weeks): 4980 mg/kg/day | TD50 (mouse, strain B6C3F1, males, in drinking water, site: any site (literature study), lesion: several types, types named in the paper, dosed 104 weeks, study length 104 weeks): 992 mg/kg/day | TD50 (mouse, strain B6C3F1, males, in drinking water, site: liver, lesion: hemangioma, dosed 104 weeks, study length 104 weeks): 9550 mg/kg/day | TD50 (mouse, strain B6C3F1, males, in drinking water, site: liver, lesion: hyperplastic nodule, dosed 104 weeks, study length 104 weeks): 5970 mg/kg/day | TD50 (mouse, strain B6C3F1, males, in drinking water, site: lung, lesion: papillary tumor, dosed 104 weeks, study length 104 weeks): 3740 mg/kg/day | TD50 (rat, strain ACI, males, in feed, site: forestomach, lesion: papilloma, dosed 52 weeks, study length 52 weeks): 2660 mg/kg/day | carcinogen call (rat, strain F344/DuCrj, males, in feed, site: forestomach, dosed 51 weeks, study length 52 weeks): negative (inactive) | carcinogen call (rat, strain F344/DuCrj, males, in feed, site: stomach, glandular, dosed 51 weeks, study length 52 weeks): negative (inactive) | TD50 (rat, strain Fischer 344, males, in feed, site: adrenal medulla, lesion: pheochromocytoma, dosed 104 weeks, study length 104 weeks): 2980 mg/kg/day (inactive) | carcinogen call (rat, strain Wistar, males, in feed, site: stomach, glandular, dosed 82 weeks, study length 82 weeks): negative (inactive)
